This is an account of results in patent publication US20230265098A1, “ALKYNE QUINAZOLINE DERIVATIVES AS INHIBITORS OF ERBB2” (EnLiven Therapeutics, Inc., priority 2020, published 2023).

For one assay, the target named is EGFR (Homo sapiens, UniProt P00533). The assay is described as follows: Reaction Biology kinase activity assay (33P-ATP, HotSpot). Type of assay: biochemical. The following applies: final enzyme concentration 3 nM; 100 μM 33P-ATP; 20 min preincubation, 2 hours at 25° C. The procedure:
(§1) Inhibition of kinase activity was assessed using a kinase activity assay (Anastassiadis, T. et al. Nat Biotechnol 2011 29: 1039-1045). In particular, substrate (poly Glu-Tyr sodium salt (Sigma Aldrich, cat #P7244)) was freshly prepared in reaction buffer (20 mM Hepes (pH 7.5), 10 mM MgCl2, 1 mM EGTA, 0.02% Brij35, 0.02 mg/ml BSA, 0.1 mM Na3VO4, 2 mM DTT, 1% DMSO). EGFR, ERBB2 or ERBB2 mutant kinases were added to the substrate solution and mixed at the final concentrations in Table B1, below. Compounds were dissolved in 100% DMSO and the resulting solutions were added to the kinase reaction mixture. The kinase reaction mixture was incubated with the compounds for 20 minutes at room temperature. 100 μM ^33P-ATP (Specific activity 10 μCi/μl) was then added to initiate the reaction. This mixture was incubated for 2 hours at 25° C.
(§2) Reactions were spotted onto P81 ion exchange filter paper (Whatman). Unbound phosphate was removed by extensive washing of filters in 0.75% phosphoric acid. Radioactivity was detected using a HotSpot, a proprietary technology of Reaction Biology Corporation (Anastassiadis, T. et al., Nat Biotechnol. 2011 29(11):1039-45). Kinase activity data were expressed as the percentage kinase activity remaining in test samples relative to vehicle only (i.e., DMSO only) control reactions. IC50 values and curve fits were obtained using Prism (GraphPad Software), using a nonlinear regression model with a sigmoidal dose response and are shown in Table B1.

A further assay deals with ERBB2 (D769H) (Homo sapiens, UniProt P04626, D769H). The description is as above. The following applies: final enzyme concentration 150 nM; 100 μM 33P-ATP; 20 min preincubation, 2 hours at 25° C. The class given is biochemical. The procedure:
as §1, §2

For a further assay, the target named is ERBB2 (D769Y) (Homo sapiens, UniProt P04626, D769Y). The description is as above. The class given is biochemical. The following applies: final enzyme concentration 15 nM; 100 μM 33P-ATP; 20 min preincubation, 2 hours at 25° C. Here is the method:
as §1, §2

A further assay deals with ERBB2 (P1170A) (Homo sapiens, UniProt P04626, P1170A). The assay is described as above. The following applies: final enzyme concentration 20 nM; 100 μM 33P-ATP; 20 min preincubation, 2 hours at 25° C. Type of assay: biochemical. Here is the method:
as §1, §2

The next assay has as its target ERBB2 (R896C) (Homo sapiens, UniProt P04626, R896C). The description is as above. The following applies: final enzyme concentration 200 nM; 100 μM 33P-ATP; 20 min preincubation, 2 hours at 25° C. The class given is biochemical. Here is the method:
as §1, §2

A further assay has as its target ERBB2 (V777L) (Homo sapiens, UniProt P04626, V777L). Described as above. The class given is biochemical. The following applies: final enzyme concentration 40 nM; 100 μM 33P-ATP; 20 min preincubation, 2 hours at 25° C. Here is the method: as §1, §2
Another assay has as its target ERBB2 (V777_G778insCG) (Homo sapiens, UniProt P04626, INS777CG). The assay is described as above. The class given is biochemical. The following applies: final enzyme concentration 100 nM; 100 μM 33P-ATP; 20 min preincubation, 2 hours at 25° C. The procedure:
as §1, §2

In another assay the target is ERBB2/HER2 (Homo sapiens, UniProt P04626). Described as above. Type of assay: biochemical. The note with it: final enzyme concentration 50 nM; 100 μM 33P-ATP; 20 min preincubation, 2 hours at 25° C. The procedure:
as §1, §2

Another assay concerns A431 cells. In words: Cell viability assay (CellTiter Glo). Type of assay: cell-based. The note with it: Homo sapiens, A-431; 72 hours; 1500 cells per well, 384-well; DMEM + 10% FBS. The procedure: (§3) Cells were treated with compounds, and cell viability was measured as a metric of kinase inhibition.
(§4) The Ba/F3 cell line is IL-3-dependent mouse cell line derived from the C3H mouse strain. Ba/F3 cell lines were engineered to express human ERBB2 or EGFR kinases, rendering the cells IL-3 independent. The lines were generated via retroviral transduction utilizing a Moloney murine leukemia virus (MMLV) promoter, and constructs are stably integrated into the cell genome.
(§5) Similarly, Ba/F3 cell lines engineered to express EGFR, ERBB2, or ERBB2 mutants were grown, harvested, counted and seeded at 3000 cells per well in 96-well plates for the data sets shown in Tables B3-B4, and seeded at 300 cells per well in 384-well plates for the data set shown in Table B5. A subset of wells contained media only (low control, “LC”).
(§6) Table B2 provides the growth media and number of cells seeded per well for the each cell line.
(§7) Compounds were dissolved in DMSO and serially diluted. Serially-diluted compound or a DMSO only control (high control, “HC”) was added to the plated cells in each well. […] The final proportion of DMSO never exceeded 0.1%.
(§8) Plates were placed in a 37° C., 5% CO2 incubator for 72 hours. Plates were then removed from the incubator and equilibrated for 15 minutes at room temperature. 40 IA of CellTiter Glo reagent (Promega) was added to measure the relative level of metabolically active cells by quantifying intracellular ATP concentrations. Plates were incubated for 30 minutes at room temperature, and luminescence was measured. Percent viability was normalized to a vehicle control only using the following formula: % viability=100×(LumSample−LumLC) (LumHC−LumLC). Graphical curves were fitted using a nonlinear regression model with a sigmoidal dose response.

Another assay has as its system BT-474 cells. The assay is described as follows: Cell viability assay (CellTiter Glo). The note with it: Homo sapiens, 72 hours, 2000 cells per well, 384-well, DMEM + 10% FBS. Type of assay: cell-based. The procedure: as §3, §4, §5, §6, §7, §8
For a further assay, the system named is MDA-MB-175VII cells. The assay is described as follows: Cell viability assay (CellTiter Glo). Type of assay: cell-based. The following applies: Homo sapiens, 72 hours, 2000 cells per well, 384-well, RPMI + 10% FBS. Here is the method: as §3, §4, §5, §6, §7, §8
The next assay has as its target T1, Ba/F3 EGFR wt (Homo sapiens, UniProt P00533).
T1 construct: Ba/F3 cell lines were engineered to express human ERBB2 or EGFR kinases, rendering the cells IL-3 independent
In words: Cell viability assay (CellTiter Glo). The note with it: 72 hours; 3000 cells per well, 96-well plates; read-out: Cell viability IC50, nM, Ba/F3 EGFR wt. Type of assay: cell-based, mouse. In short, it runs like this:
(§9)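 Murine Ba/F3 cells made IL-3-independent by retroviral human EGFR or ERBB2 were seeded at 3000 or 300 cells per well and exposed to serially diluted compound (DMSO ≤0.1%) for 72 hours at 37° C, 5% CO2. CellTiter Glo luminescence was normalised to DMSO and media-only controls and fitted to a sigmoidal dose-response.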

In a further assay the target is T2, Ba/F3 ERBB2 wt (Homo sapiens, UniProt P04626).
T2 construct: Ba/F3 cell lines were engineered to express human ERBB2 or EGFR kinases, rendering the cells IL-3 independent
In words: Cell viability assay (CellTiter Glo). Type of assay: cell-based, mouse. The note with it: 72 hours; 3000 cells per well, 96-well plates; read-out: Cell viability IC50, nM, Ba/F3 ERBB2 wt. In a few lines: as §9

T2 sequence (P04626 whole entry, change not shown): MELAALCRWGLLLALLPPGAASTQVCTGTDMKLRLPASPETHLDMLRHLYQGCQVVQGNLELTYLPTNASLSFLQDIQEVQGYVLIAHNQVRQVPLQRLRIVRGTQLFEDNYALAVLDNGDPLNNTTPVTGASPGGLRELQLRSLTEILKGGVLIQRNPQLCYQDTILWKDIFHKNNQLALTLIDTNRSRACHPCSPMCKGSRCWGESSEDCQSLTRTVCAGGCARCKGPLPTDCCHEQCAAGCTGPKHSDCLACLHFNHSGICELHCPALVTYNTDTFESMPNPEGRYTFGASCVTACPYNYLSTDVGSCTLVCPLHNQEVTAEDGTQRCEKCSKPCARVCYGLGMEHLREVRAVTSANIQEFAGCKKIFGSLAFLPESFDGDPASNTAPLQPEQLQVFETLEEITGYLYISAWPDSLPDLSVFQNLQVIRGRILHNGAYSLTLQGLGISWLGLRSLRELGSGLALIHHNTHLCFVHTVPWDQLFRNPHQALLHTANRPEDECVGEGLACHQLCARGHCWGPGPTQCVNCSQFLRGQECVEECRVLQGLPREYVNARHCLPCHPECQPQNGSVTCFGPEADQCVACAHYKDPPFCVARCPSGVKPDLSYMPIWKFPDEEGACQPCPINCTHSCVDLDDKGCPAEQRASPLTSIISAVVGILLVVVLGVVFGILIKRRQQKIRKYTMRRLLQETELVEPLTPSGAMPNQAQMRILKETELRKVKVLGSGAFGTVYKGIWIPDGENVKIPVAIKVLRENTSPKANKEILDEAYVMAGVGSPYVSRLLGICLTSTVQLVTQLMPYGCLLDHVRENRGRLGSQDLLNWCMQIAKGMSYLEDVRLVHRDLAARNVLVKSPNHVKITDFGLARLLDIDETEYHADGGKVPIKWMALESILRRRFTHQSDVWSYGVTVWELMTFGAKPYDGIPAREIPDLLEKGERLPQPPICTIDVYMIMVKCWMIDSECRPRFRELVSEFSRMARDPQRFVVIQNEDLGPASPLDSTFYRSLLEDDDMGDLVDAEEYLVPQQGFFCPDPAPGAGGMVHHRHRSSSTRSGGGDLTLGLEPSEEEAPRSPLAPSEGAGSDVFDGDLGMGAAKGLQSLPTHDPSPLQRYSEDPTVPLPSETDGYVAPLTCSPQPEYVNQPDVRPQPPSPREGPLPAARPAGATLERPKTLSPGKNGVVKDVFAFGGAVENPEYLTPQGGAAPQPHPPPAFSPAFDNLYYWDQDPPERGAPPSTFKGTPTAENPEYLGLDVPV
ERBB2/HER2, sequence (P04626 23-1255): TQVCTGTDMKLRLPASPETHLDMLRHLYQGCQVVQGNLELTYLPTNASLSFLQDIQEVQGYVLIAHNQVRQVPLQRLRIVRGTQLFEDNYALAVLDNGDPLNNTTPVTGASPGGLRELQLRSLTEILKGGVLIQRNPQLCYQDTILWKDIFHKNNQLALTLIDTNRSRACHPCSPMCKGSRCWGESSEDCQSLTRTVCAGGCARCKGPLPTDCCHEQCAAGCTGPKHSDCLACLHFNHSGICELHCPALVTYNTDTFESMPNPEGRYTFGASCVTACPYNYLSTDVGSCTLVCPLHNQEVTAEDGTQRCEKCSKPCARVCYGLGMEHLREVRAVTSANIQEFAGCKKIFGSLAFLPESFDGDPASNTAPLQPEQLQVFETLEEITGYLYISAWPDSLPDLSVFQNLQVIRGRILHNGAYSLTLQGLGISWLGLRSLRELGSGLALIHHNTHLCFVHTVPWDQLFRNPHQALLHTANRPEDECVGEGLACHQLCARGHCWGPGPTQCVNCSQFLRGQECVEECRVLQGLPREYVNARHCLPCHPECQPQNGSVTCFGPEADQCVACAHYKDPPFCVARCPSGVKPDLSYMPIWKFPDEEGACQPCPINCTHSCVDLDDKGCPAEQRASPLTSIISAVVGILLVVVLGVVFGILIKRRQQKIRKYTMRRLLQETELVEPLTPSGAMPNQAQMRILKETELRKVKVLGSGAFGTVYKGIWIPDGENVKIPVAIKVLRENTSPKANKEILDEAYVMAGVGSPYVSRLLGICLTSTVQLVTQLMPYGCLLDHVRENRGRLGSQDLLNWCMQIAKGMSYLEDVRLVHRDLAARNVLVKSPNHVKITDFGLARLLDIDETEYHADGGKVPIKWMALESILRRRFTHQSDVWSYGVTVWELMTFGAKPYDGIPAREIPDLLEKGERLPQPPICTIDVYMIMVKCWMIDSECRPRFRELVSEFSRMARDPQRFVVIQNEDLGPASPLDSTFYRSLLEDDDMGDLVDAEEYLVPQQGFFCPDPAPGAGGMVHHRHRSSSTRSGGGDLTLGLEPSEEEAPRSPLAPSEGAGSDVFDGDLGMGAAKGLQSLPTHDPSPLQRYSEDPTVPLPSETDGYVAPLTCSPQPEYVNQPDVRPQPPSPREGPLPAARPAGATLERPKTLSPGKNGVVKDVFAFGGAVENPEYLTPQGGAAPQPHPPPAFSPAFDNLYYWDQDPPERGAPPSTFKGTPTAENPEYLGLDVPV
ERBB2 (R896C), sequence (P04626 23-1255 R896C): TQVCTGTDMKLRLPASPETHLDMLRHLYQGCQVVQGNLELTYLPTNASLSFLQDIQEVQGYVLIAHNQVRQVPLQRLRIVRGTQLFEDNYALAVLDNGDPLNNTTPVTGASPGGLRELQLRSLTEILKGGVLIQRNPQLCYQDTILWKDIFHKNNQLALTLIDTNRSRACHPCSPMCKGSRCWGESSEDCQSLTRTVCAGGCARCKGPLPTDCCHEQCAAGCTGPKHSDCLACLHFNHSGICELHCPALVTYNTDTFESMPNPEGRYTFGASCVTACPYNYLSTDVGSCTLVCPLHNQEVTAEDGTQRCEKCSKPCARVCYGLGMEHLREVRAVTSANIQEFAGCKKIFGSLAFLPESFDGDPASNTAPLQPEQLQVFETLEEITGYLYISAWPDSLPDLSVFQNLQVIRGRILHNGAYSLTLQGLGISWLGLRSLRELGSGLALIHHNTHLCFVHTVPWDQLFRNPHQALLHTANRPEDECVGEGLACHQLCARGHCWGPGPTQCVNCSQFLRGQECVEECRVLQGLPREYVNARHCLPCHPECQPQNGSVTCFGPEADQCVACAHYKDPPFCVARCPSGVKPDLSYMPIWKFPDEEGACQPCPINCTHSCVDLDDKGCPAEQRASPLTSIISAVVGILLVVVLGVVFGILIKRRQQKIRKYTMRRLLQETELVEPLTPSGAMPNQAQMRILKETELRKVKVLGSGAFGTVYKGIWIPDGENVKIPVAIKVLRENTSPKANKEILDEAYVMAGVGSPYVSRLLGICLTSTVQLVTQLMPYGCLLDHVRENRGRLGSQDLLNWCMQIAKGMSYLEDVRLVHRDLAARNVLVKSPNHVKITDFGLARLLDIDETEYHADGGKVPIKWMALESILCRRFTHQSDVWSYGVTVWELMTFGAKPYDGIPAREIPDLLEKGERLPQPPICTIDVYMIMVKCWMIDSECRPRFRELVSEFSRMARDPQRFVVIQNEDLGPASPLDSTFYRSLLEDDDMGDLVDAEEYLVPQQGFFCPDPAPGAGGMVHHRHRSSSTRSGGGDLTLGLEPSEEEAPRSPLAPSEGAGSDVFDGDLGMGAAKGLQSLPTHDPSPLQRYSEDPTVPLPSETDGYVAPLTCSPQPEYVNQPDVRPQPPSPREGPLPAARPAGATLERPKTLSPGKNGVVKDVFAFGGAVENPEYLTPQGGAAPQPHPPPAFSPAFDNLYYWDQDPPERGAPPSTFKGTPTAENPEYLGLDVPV
T1 sequence (P00533 whole entry, change not shown): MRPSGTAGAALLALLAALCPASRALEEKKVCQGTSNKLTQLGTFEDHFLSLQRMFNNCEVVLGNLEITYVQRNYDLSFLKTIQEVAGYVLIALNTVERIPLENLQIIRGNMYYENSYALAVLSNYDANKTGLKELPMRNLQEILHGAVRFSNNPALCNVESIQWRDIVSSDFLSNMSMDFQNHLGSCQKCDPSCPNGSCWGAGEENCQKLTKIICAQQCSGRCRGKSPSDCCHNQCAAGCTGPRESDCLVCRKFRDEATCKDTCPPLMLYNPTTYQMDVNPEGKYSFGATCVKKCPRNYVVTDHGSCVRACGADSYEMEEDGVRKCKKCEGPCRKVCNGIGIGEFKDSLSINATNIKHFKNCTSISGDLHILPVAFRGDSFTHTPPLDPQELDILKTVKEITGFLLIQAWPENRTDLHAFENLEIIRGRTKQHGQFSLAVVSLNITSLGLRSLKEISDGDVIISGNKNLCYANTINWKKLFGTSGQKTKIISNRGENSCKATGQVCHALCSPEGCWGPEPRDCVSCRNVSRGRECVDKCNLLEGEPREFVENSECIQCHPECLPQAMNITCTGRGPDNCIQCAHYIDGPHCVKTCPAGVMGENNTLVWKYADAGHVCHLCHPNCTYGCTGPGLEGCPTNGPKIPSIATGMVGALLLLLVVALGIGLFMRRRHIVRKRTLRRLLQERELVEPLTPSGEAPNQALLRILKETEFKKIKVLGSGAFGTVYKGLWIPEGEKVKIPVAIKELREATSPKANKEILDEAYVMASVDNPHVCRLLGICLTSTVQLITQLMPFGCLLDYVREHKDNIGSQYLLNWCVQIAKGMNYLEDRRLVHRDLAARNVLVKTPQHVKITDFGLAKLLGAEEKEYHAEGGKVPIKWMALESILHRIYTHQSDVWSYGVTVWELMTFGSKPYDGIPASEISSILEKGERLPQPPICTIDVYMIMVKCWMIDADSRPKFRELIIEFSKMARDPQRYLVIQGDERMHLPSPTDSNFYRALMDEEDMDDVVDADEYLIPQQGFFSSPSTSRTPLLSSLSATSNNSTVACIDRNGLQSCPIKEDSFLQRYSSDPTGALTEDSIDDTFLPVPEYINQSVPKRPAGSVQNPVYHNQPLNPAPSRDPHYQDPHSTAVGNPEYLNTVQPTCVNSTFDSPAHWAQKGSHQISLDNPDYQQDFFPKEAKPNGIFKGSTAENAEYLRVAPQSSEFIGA

As for `CC#CC(=O)Nc1ccc2ncnc(Nc3ccc(Oc4ccn5ncnc5c4)c(C)c3)c2c1` [Compound 1, N-[4-[(3-methyl-4-[[1,2,4]triazolo[1,5-a]pyridin-7-yloxy]phenyl)amino]quinazolin-6-yl]but-2-ynamide], the half-inhibitory concentration (IC50) stood at 58 nM against EGFR; 1.04 nM on ERBB2 (D769H); 1.56 nM on ERBB2 (D769Y); 0.68 nM against ERBB2 (P1170A); 2.29 nM on ERBB2 (R896C); 1.38 nM against ERBB2 (V777L). The concentration for half-maximal inhibition (IC50) against ERBB2 (V777_G778insCG) worked out at 0.97 nM; at ERBB2/HER2 it was 0.49 nM; in the assay with A431 cells, 1730 nM; in the assay with BT-474 cells it was 3.89 nM; in the assay on MDA-MB-175VII cells, 9 nM. The GI50 at Ba/F3 EGFR wt came to 2750 nM; on Ba/F3 ERBB2 wt it was 1.5 nM.
For `CC#CC(=O)Nc1cc2c(Nc3ccc(Oc4ccn5ncnc5c4)c(C)c3)ncnc2cc1OCCN(C)C` [Compound 150, N-[7-[2-(dimethylamino)ethoxy]-4-[(3-methyl-4-[[1,2,4]triazolo[1,5-a]pyridin-7-yloxy]phenyl)amino]quinazolin-6-yl]but-2-ynamide], the GI50 at Ba/F3 ERBB2 wt is 2.12 nM.
`Cc1cc(Nc2ncnc3ccc(NC4=NC(C)(C)CO4)cc23)ccc1Oc1ccn2ncnc2c1` [Tucatinib, tucatinib, reference compound]: the 50% inhibitory concentration (IC50) was 954 nM on EGFR; 5 nM against ERBB2 (D769H); 13.7 nM against ERBB2 (D769Y); 3.99 nM on ERBB2 (P1170A); 2.95 nM against ERBB2 (R896C); 4.3 nM against ERBB2 (V777L). Besides, the IC50 on ERBB2 (V777_G778insCG) is 4.43 nM; against ERBB2/HER2, 3.07 nM; with A431 cells, greater than 10000 nM; in the assay with BT-474 cells it was 41.8 nM; in the assay on MDA-MB-175VII cells, 89 nM. The GI50 at Ba/F3 EGFR wt was greater than 10000 nM; on Ba/F3 ERBB2 wt it was 26.5 nM.
